# Reference: patent US10526327B2, “Histone demethylase inhibitors” (CELGENE QUANTICEL RESEARCH, INC., priority 2013, dated 2020)
# pIC50: −log10 of the molar value.
# Columns and labels:
# Jarid1A = target: T1, Jarid1A (Homo sapiens, UniProt P29375); test: Jarid1A in vitro enzyme inhibition assay (TR-FRET); type: biochemical
# T1 construct: purchased BPS Bioscience 50110
# T1 sequence (P29375 1-1090): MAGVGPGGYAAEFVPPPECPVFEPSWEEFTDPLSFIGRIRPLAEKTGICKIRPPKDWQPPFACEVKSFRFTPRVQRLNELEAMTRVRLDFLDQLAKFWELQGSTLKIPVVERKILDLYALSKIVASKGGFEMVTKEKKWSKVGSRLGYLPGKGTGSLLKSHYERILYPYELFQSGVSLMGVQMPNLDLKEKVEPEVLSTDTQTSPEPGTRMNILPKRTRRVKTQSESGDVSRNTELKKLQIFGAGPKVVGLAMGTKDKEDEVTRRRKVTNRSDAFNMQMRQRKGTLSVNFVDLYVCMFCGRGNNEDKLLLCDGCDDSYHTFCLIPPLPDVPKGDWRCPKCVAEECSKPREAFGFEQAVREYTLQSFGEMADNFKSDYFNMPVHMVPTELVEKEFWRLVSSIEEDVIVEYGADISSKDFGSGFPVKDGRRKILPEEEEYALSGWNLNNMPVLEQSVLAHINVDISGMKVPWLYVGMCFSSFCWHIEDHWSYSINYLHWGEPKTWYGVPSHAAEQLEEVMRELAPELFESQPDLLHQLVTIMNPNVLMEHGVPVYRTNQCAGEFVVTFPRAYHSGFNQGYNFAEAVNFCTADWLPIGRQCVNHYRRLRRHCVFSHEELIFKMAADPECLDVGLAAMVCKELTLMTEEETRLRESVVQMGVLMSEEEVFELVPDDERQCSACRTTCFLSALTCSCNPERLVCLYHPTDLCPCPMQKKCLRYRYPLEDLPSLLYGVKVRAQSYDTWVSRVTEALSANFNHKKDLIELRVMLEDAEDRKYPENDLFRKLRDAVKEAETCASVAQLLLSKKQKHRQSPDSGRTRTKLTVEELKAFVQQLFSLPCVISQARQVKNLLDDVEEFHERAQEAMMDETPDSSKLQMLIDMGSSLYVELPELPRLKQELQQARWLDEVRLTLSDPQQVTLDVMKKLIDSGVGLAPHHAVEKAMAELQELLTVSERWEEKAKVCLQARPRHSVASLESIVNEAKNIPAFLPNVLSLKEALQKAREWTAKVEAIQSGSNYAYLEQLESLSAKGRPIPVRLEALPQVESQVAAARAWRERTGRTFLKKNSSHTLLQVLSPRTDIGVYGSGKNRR
# Source text: This assay determines the ability of a test compound to inhibit Jarid1A, Jarid1B, and JMJD2C demethylase activity. Baculovirus expressed Jarid1A (GenBank Accession #NM_001042603, AA1-1090) was purchased from BPS Bioscience (Cat#50110). Baculovirus expressed Jarid1B (GenBank Accession #NM_006618, AA 2-751) was purchased from BPS Bioscience (Cat #50121) or custom made by MolecularThroughput. Baculovirus expressed JMJD2C (GenBank Accession #BC143571, AA 2-372) was purchased from BPS Bioscience (Cat#50105).
# The enzymatic assay of Jarid1A activity is based upon Time Resolved-Fluorescence Resonance Energy Transfer (TR-FRET) detection. The ability of test compounds to inhibit the activity of Jarid1A was determined in 384-well plate format under the following reaction conditions: 1 nM Jarid1A, 300 nM H3K4me3-biotin labeled peptide (Anaspec cat #64357), 2 μM alpha-ketoglutaric acid in assay buffer of 50 mM HEPES, pH7.3, 0.005% Brij35, 0.5 mM TCEP, 0.2 mg/ml BSA, 50 μM sodium L-ascorbate, and 2 μM ammonium iron(II) sulfate. Reaction product was determined quantitatively by TR-FRET after the addition of detection reagent Phycolink Streptavidin-allophycocyanin (Prozyme) and Europium-anti-mono-or di-methylated histone H3 lysine 4 (H3K4me1-2) antibody (PerkinElmer) in the presence of 5 mM EDTA in LANCE detection buffer (PerkinElmer) at a final concentration of 25 nM and 1 nM, respectively.
# The assay reaction was initiated by the following: 2 μl of the mixture of 900 nM H3K4me3-biotin labeled peptide and 6 μM alpha-ketoglutaric acid with 2 μl of 11-point serial diluted inhibitor in 3% DMSO was added to each well of plate, followed by the addition of 2 μl of 3 nM Jarid1A to initiate the reaction. The reaction mixture was incubated at room temperature for 30 minutes, and terminated by the addition of 6 μl of 5 mM EDTA in LANCE detection buffer containing 50 nM Phycolink Streptavidin-allophycocyanin and 2 nM Europium-anti-H3K4me1-2 antibody. Plates were read by EnVisionMultilabel Reader in TR-FRET mode (excitation at 320 nm, emission at 615 nm and 665 nm) after 1 hour incubation at room temperature. A ratio was calculated (665/615) for each well and fitted to determine inhibition constant (IC50).
# KDM5A/B = test: In vitro cell-based assay: immuno-blot quantification of tri-methyl H3K4 in ZR-75-1 breast cancer cells; details: 72 hours, tri-methyl H3K4 level relative to GAPDH, percent of DMSO, read-out: Cellular IC50
# Source text: An assay to measure the degree of cellular inhibition of KDM5A and 5B was developed. This quantitative immuno-blotting assay measures the amount tri-methylated histone H3 at amino acid Lysine number 4, a specific substrate […] of the direct enzymatic activity of the histone demethylases KDM5A and KDM5B from extracts of the ZR-75-1 breast cancer cell line.
# This assay is a fluorometric immunoassay for the quantification of tri-methyl H3K4 extracted from cells treated with test compound and is used as a measure of the cellular inhibition of KDM5A/B.
# ZR-75-1 (PTEN null, ER+) breast cancer cells numbering 50,000 (ATCC) were seeded into each well of a 96-well tissue culture treated plate and then exposed to an 11 point dilution of test compound with final concentration ranges of test compound ranging from 1250 μM to 10 nM. Cells were left in the presence of test compound for 72 hours. Extracts were prepared containing all of the cellular histone material using detergent based lysis and sonication methods. These lysates were subsequently normalized for total protein content using a colorimetric bicinchonic acid assay (MicroBCA Pierce/Thermo Scientific). Normalized cell extracts were then subjected to typical immuno-blotting procedures using NuPage reagents (Life Technologies). Electrophoretically separated histones were then transferred and immobilized using polyvinylidene difluoride membrane (Immobilon-FL Millipore). The amount of tri-methylated lysine 4 of histone H3 was detected using an antibody specific to the tri-methylated state (Cell Signaling Technologies) and quantified on an infrared imager using a densitometry software package (Odyssey CLx, Image Studio, Li-Cor). This background subtracted densitometry value was reported as a ration of the GAPDH amount for that sample and then calculated as a percent of the DMSO treated sample. The software package XL-fit (IDBS) was then used to calculate a relative IC50 value for the dilution series of a given test compound according to the equation: fit=(D+((Vmax*(x^n))/((x^n)+(Km^n)))).
Compound,pIC50 (Jarid1A),pIC50 (KDM5A/B)
"Cn1cnc(-c2nccc3c(O)nc(OCc4ccc(F)cc4)nc23)c1 [Example 71, 2-[(4-fluorobenzyl)oxy]-8-(1-methyl-1H-imidazol-4-yl)pyrido[3,4-d]pyrimidin-4-ol]",≥ 7.00,5.00 to 6.00
"Cn1cnc(-c2nccc3c(O)nc(OCC4CC4)nc23)c1 [Example 72, 2-(cyclopropylmethoxy)-8-(1-methylimidazol-4-yl)pyrido[3,4-d]pyrimidin-4-ol]",≥ 7.00,5.00 to 6.00
"Cn1cnc(-c2nccc3c(O)nc(OCCCC(F)(F)F)nc23)c1 [Example 74, 8-(1-methylimidazol-4-yl)-2-(4,4,4-trifluorobutoxy)pyrido[3,4-d]pyrimidin-4-ol]",≥ 7.00,6.00 to 7.00
"Cn1cnc(-c2nccc3c(O)nc(OCCO)nc23)c1 [Example 75, 2-(2-hydroxyethoxy)-8-(1-methylimidazol-4-yl)pyrido[3,4-d]pyrimidin-4-ol]",≥ 7.00,< 5.00
"Oc1nc(Oc2cnn(Cc3ccc(F)cc3)c2)nc2cnccc12 [Example 86, 2-[1-(4-fluorobenzyl)pyrazol-4-yl]oxypyrido[3,4-d]pyrimidin-4-ol]",≥ 7.00,5.00 to 6.00
"Oc1nc(Oc2cnn(Cc3ccccc3F)c2)nc2cnccc12 [Example 87, 2-[1-(2-fluorobenzyl)pyrazol-4-yl]oxypyrido[3,4-d]pyrimidin-4-ol]",≥ 7.00,6.00 to 7.00
"CC(C)(C)OC(=O)N1CCC(n2cc(Oc3nc(O)c4ccncc4n3)cn2)CC1 [Example 88, tert-butyl 4-[4-(4-hydroxypyrido[3,4-d]pyrimidin-2-yl)oxypyrazol-1-yl]piperidine-1-carboxylate]",≥ 7.00,5.00 to 6.00
"Oc1nc(Oc2cnn(C3CCNCC3)c2)nc2cnccc12 [Example 89, 2-(1-piperidin-4-ylpyrazol-4-yl)oxypyrido[3,4-d]pyrimidin-4-ol]",≥ 7.00,5.00 to 6.00

# Second part, the molecule after the results:
pIC50 (Jarid1A),pIC50 (KDM5A/B),Compound
≥ 7.00,< 5.00,"Oc1nc(Oc2ccc(Cl)cc2)nc2cnccc12 [Example 49, 2-(4-chlorophenoxy)pyrido[3,4-d]pyrimidin-4-ol]"
≥ 7.00,< 5.00,"CN(C)c1cccc(Oc2nc(O)c3ccncc3n2)c1 [Example 50, 2-[3-(dimethylamino)phenoxy]pyrido[3,4-d]pyrimidin-4-ol]"
≥ 7.00,5.00 to 6.00,"Oc1nc(Oc2cccc(C(F)(F)F)c2)nc2cnccc12 [Example 52, 2-[3-(trifluoromethyl)phenoxy]pyrido[3,4-d]pyrimidin-4-ol]"
≥ 7.00,5.00 to 6.00,"COc1ccc(Oc2nc(O)c3ccncc3n2)cc1F [Example 53, 2-(3-fluoro-4-methoxyphenoxy)pyrido[3,4-d]pyrimidin-4-ol]"
≥ 7.00,5.00 to 6.00,"CCCn1cc(Oc2nc(O)c3ccncc3n2)cn1 [Example 54, 2-(1-propylpyrazol-4-yl)oxypyrido[3,4-d]pyrimidin-4-ol]"
≥ 7.00,5.00 to 6.00,"CC(C)CCn1cc(Oc2nc(O)c3ccncc3n2)cn1 [Example 55, 2-{[1-(3-methylbutyl)pyrazol-4-yl]oxy}pyrido[3,4-d]pyrimidin-4-ol]"
≥ 7.00,5.00 to 6.00,"Oc1nc(Oc2cnn(C3CCCC3)c2)nc2cnccc12 [Example 56, 2-[(1-cyclopentylpyrazol-4-yl)oxy]pyrido[3,4-d]pyrimidin-4-ol]"
≥ 7.00,< 5.00,"CCc1cccc(Oc2nc(O)c3ccncc3n2)c1 [Example 57, 2-(3-ethylphenoxy)pyrido[3,4-d]pyrimidin-4-ol]"
≥ 7.00,5.00 to 6.00,"Oc1nc(Oc2cnn(Cc3ccccc3)c2)nc2cnccc12 [Example 66, 2-[(1-benzyl-1H-pyrazol-4-yl)oxy]pyrido[3,4-d]pyrimidin-4-ol]"
≥ 7.00,< 5.00,"CCOc1nc(O)c2ccnc(-c3cn(C)cn3)c2n1 [Example 69, 2-ethoxy-8-(1-methyl-1H-imidazol-4-yl)pyrido[3,4-d]pyrimidin-4-ol]"
≥ 7.00,5.00 to 6.00,"Cn1cnc(-c2nccc3c(O)nc(OCC(F)(F)F)nc23)c1 [Example 70, 8-(1-methyl-1H-imidazol-4-yl)-2-(2,2,2-trifluoroethoxy)pyrido[3,4-d]pyrimidin-4-ol]"
